We go through one compound from PMC8320612 (Current Research in Toxicology, 2021).

The target in test [1] is T1, thyroid peroxidase (TPO), rat thyroid microsomes (Rattus norvegicus, UniProt P14650).
T1 sequence (P14650 32-914): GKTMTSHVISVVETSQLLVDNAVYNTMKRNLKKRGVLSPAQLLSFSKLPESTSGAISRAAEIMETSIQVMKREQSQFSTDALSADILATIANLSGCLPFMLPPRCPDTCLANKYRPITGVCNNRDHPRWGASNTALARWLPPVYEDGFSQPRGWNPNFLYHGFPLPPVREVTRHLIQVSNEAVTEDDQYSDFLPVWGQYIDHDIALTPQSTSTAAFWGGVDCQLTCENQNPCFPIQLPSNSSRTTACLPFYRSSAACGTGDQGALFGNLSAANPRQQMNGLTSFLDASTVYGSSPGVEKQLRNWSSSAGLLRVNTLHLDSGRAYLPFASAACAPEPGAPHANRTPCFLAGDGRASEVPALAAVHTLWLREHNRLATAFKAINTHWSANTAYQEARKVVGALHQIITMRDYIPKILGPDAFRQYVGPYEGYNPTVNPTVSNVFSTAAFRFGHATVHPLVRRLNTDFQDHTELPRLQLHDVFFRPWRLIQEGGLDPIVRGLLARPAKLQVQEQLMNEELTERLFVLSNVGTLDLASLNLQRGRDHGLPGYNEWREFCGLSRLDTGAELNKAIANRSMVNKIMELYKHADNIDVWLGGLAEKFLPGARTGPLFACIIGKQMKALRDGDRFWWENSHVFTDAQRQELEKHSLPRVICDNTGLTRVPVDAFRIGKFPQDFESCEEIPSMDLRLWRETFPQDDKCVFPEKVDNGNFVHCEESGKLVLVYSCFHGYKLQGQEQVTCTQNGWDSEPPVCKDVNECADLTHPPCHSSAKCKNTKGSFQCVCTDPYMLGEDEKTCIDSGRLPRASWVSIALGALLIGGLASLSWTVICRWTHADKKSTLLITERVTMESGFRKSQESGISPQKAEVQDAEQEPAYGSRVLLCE
Briefly: Battery of TPO assays, summary of IC50 across reactions. It counts as biochemical.

In test [2] the target is T1, thyroid peroxidase (TPO), rat thyroid microsomes. Briefly: TPO activity assay, MIT to DIT monoiodination, LC-MS/MS. It counts as biochemical. Conditions: result in words.

pIC50: −log10 of the molar value.

In test [1], `O=c1c(-c2ccc(O)cc2)coc2cc(O)ccc12` [DZN, Daidzein] gave a negative-log IC50 (pIC50) of 4.24 to 4.70. Besides, the “Effect on MIT to DIT iodination” value in test [2] is “no adverse effects”.

As usually defined, the pIC50 is −log10 of the IC50, conventionally taken in molar units.
